Converted amounts (≈) assume the structure as drawn. The source made the active and inactive calls. No cut-off for these calls is given here.
Columns and labels:
[1] = Lipophilicity, log D of compound in PBS buffer at pH 7 at 200 uM incubated for 24 hrs in shaker by UPLC/DAD analysis; assay type: physicochemical
[2] = Solubility of compound in PBS buffer at pH 7 at 200 uM incubated for 24 hrs in shaker by UPLC-DAD analysis; assay type: physicochemical
[3] = Solubility of compound in PBS buffer at pH 2 at 200 uM incubated for 24 hrs in shaker by UPLC-DAD analysis; assay type: physicochemical
[4] = molecular target: Voltage-gated inwardly rectifying potassium channel KCNH2 (Homo sapiens, UniProt Q12809); test: Displacement of [35S]-MK499 binding to human ERG expressed in HEK293 cells incubated for 2 hrs by liquid scintillation counting method; assay type: cell-based
Voltage-gated inwardly rectifying potassium channel KCNH2, sequence (Q12809 whole entry): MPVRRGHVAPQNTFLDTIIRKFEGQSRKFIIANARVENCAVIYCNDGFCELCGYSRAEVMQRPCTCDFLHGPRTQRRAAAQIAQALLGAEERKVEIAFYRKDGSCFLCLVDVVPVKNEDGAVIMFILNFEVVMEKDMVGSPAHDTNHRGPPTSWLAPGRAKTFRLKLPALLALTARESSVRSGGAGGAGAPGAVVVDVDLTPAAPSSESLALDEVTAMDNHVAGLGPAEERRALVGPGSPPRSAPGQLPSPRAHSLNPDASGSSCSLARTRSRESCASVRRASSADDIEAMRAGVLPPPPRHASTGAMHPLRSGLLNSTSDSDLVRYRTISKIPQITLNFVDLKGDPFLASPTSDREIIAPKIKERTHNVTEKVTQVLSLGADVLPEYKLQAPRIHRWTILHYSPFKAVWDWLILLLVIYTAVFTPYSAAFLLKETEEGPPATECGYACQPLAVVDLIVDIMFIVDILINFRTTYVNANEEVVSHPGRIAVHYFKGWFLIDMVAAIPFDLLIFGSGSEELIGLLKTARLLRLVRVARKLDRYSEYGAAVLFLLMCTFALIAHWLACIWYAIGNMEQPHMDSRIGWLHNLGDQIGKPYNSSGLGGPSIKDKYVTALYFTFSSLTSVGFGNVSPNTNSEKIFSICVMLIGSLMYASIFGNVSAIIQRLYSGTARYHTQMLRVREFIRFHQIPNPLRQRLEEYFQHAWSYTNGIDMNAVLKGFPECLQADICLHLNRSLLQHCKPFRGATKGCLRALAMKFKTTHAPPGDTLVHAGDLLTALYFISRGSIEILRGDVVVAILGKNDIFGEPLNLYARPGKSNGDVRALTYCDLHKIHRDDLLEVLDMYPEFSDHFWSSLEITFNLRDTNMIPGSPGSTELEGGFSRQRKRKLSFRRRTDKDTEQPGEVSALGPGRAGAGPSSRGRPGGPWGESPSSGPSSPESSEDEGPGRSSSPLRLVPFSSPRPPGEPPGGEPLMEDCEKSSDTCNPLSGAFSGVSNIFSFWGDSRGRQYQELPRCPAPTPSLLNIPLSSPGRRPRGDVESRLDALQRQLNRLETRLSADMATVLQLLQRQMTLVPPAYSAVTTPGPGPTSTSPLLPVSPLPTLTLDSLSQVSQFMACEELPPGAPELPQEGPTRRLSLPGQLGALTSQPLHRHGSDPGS

[5] = Metabolic stability in human hepatocytes at 30 uM measured upto 90 mins by LC-MS analysis; assay type: ADME, cell-based, Hepatocyte
[6] = Metabolic stability in rat hepatocytes at 30 uM measured upto 90 mins by LC-MS analysis; assay type: ADME, cell-based, Hepatocyte
[7] = Drug metabolism in rat hepatocytes assessed as amide hydrolysis metabolite formation at 30 uM measured upto 90 mins by LC-MS analysis; assay type: ADME, cell-based, Hepatocyte
[8] = Protein binding in human plasma assessed as unbound fraction; assay type: ADME, cell-free
[9] = Inhibition of Na ion channel (unknown origin); set-up: species or system Homo sapiens
[10] = Drug metabolism in human hepatocytes assessed as amide hydrolysis metabolite formation at 30 uM measured upto 90 mins by LC-MS analysis; assay type: ADME, cell-based, Hepatocyte
[11] = Apparent permeability of compound; assay type: ADME; conditions: not told
Cytochrome P450 3A4 = Cytochrome P450 3A4 (Homo sapiens, UniProt P08684); test: Inhibition of CYP3A4 (unknown origin); assay type: ADME
Cytochrome P450 3A4, sequence (P08684 whole entry): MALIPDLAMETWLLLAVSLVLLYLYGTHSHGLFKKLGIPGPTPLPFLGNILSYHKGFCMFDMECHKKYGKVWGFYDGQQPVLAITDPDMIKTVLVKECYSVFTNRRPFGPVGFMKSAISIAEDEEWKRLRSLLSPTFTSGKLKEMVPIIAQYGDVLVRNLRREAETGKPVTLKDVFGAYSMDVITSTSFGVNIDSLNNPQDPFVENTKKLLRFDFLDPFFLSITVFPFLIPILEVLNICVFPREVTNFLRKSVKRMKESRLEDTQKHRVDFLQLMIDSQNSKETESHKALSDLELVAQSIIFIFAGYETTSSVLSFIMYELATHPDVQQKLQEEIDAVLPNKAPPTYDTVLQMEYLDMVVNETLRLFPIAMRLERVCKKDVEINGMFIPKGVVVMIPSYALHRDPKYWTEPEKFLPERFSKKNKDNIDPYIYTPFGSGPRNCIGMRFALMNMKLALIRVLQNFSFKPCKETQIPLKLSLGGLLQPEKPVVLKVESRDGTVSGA

[12] = Half life in rat at 2 mg/kg, po or 1 mg/kg, iv; assay type: ADME, organism-based; conditions: in vivo
[13] = Protein binding in rat plasma assessed as unbound fraction; assay type: ADME, cell-free
[14] = Clearance in rat at 0.05 mg/kg, iv; assay type: ADME, organism-based; conditions: in vivo
[15] = Inhibition of Ca ion channel (unknown origin); set-up: species or system Homo sapiens
[16] = Unbound clearance in rat at 0.05 mg/kg, iv; assay type: ADME, organism-based; conditions: in vivo
[17] = Oral bioavailability in rat at 2 mg/kg; assay type: ADME, organism-based; conditions: in vivo
[18] = Unbound clearance in rat at 2 mg/kg, po or 1 mg/kg, iv; assay type: ADME, organism-based; conditions: in vivo
[19] = Plasma clearance in rat at 2 mg/kg, po or 1 mg/kg, iv; assay type: ADME, organism-based
Cytochrome P450 2C9 = Cytochrome P450 2C9 (Homo sapiens, UniProt P11712); test: Inhibition of CYP2C9 (unknown origin); assay type: ADME
Cytochrome P450 2C9, sequence (P11712 whole entry): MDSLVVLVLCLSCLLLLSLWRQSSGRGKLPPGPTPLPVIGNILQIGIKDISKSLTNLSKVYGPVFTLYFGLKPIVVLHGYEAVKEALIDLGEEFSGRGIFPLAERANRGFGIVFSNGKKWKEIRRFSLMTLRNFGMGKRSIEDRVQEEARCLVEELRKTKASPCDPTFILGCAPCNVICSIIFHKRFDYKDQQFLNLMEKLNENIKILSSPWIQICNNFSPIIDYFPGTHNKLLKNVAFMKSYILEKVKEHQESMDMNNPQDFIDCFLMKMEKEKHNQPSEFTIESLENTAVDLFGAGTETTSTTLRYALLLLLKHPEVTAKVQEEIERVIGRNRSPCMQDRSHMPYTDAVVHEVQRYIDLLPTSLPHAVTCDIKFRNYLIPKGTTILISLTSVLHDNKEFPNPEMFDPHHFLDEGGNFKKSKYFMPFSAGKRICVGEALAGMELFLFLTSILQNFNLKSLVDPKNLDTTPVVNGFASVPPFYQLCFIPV

[20] = Drug metabolism in human hepatocytes assessed as oxidative metabolite formation at 30 uM measured upto 90 mins by LC-MS analysis; assay type: ADME, cell-based, Hepatocyte
[21] = Drug metabolism in rat hepatocytes assessed as oxidative metabolite formation at 30 uM measured upto 90 mins by LC-MS analysis; assay type: ADME, cell-based, Hepatocyte
[22] = molecular target: Tryptophan 2,3-dioxygenase (Homo sapiens) (UniProt P48775); test: Inhibition of TDO in human SW48 cells assessed as inhibition of N-formylkynurenine production; assay type: cell-based
Tryptophan 2,3-dioxygenase (Homo sapiens), sequence (P48775 whole entry, looked up): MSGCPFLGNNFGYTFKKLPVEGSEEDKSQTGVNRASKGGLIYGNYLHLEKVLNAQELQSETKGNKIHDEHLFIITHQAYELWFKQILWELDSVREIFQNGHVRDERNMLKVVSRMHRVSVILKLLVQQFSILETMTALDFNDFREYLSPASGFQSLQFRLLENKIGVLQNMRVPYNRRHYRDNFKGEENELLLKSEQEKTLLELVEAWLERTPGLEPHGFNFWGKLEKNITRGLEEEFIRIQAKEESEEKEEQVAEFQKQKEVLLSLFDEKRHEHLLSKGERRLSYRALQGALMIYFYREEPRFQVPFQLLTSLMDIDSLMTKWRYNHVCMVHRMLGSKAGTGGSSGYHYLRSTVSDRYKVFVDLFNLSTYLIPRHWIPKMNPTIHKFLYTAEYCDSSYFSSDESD

[23] = molecular target: Indoleamine 2,3-dioxygenase 1 (Homo sapiens) (UniProt P14902); conditions: Blood, time 1095.0 min
Indoleamine 2,3-dioxygenase 1 (Homo sapiens), sequence (P14902 whole entry, looked up): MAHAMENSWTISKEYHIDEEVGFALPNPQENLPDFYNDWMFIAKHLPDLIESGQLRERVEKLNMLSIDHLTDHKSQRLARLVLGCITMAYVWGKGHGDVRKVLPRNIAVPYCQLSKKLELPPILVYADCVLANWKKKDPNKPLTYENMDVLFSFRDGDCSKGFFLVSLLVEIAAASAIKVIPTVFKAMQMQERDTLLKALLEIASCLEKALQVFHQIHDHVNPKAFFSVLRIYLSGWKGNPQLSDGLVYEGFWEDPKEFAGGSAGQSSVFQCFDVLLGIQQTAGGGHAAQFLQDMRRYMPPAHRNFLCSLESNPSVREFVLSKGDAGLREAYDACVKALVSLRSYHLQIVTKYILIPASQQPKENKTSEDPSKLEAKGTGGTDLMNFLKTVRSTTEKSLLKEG

SMILES	logD at 24 h, 200 µM [1]	solubility at 24 h, 200 µM [2] [µM]	solubility at 24 h, 200 µM [3] [µM]	IC50 [4] [µM]	other results
C[C@@H](NC(=O)c1ccc(F)cc1)c1ccc2c(n1)CCCN2c1cnccn1	2.1	4 (≈ 1.51 µg/mL)	143 (≈ 54 µg/mL)	–	–
Cc1cc(N2CCCc3nc([C@@H](C)NC(=O)c4ccc(F)cc4)ccc32)ccn1	2	165 (≈ 64.4 µg/mL)	177 (≈ 69.1 µg/mL)	0.73	Stabilty [5]: Stable; Stabilty [6]: Stable
O=C(NCc1ccc2c(c1)CCCN2C(=O)c1cccc(Cl)c1)c1ccc(Cl)cc1	–	–	–	11	–
C[C@@H](NC(=O)c1ccc(Cl)cc1)c1ccc2c(n1)CCCN2C(=O)c1cccc(Cl)c1	3.4	11 (≈ 5 µg/mL)	171 (≈ 77.7 µg/mL)	8.7	–
CCCNC(=O)C1(c2ccc(NC(=O)c3cccc(Cl)c3)cc2)CCC1	3.2	–	–	–	–
CC(C)CC(=O)N1CCCc2cc(CNC(=O)c3ccc(Cl)cc3)ccc21	3.3	13 (≈ 5 µg/mL)	13 (≈ 5 µg/mL)	22	–
C[C@@H](NC(=O)c1ccc(Cl)cc1)c1ccc2c(c1)C(F)(F)CCN2C(=O)c1cccc(Cl)c1	3.9	< 4	< 4	–	–
CC(C)CC(=O)N1CCCc2cc(CNC(=O)c3ccc(Cl)cc3)cnc21	3	97 (≈ 37.4 µg/mL)	185 (≈ 71.4 µg/mL)	–	–
C[C@@H](NC(=O)c1ccc(Cl)cc1)c1ccc2c(c1)CCCN2C(=O)c1cccc(Cl)c1	3.7	3 (≈ 1.36 µg/mL)	< 1	1	Drug metabolism [20]: Metabolite_Detected; Drug metabolism [21]: Metabolite_Detected
C[C@@H](NC(=O)c1ccc(Cl)cc1)c1cc2c(cn1)N(C(=O)c1cccc(Cl)c1)CCC2	3.3	27 (≈ 12.3 µg/mL)	152 (≈ 69.1 µg/mL)	16	–
CC(C)CC(=O)N1CCCc2cc(CNC(=O)c3ccsc3)ccc21	2.8	137 (≈ 48.8 µg/mL)	140 (≈ 49.9 µg/mL)	24	Stabilty [5]: Unstable; half-life [12]: 0.2 h; inhibition [22]: inactive; Stabilty [6]: Unstable; clearance [19]: 93 mL/min/kg
C[C@@H](NC(=O)c1ccc(F)cc1)c1ccc2c(n1)CCCN2c1ccnc(C#N)n1	2.7	152 (≈ 61.2 µg/mL)	163 (≈ 65.6 µg/mL)	–	–
C[C@H](NC(=O)c1ccc(Cl)cc1)c1ccc2c(c1)CCCN2C(=O)c1cccc(Cl)c1	3.7	3 (≈ 1.36 µg/mL)	< 1	1	–
C[C@@H](NC(=O)c1ccc(Cl)cc1)c1ccc2c(c1)OCCN2C(=O)c1cccc(Cl)c1	3.6	3 (≈ 1.37 µg/mL)	1 (≈ 0.455 µg/mL)	6.9	–
C[C@@H](NC(=O)c1ccc(F)cc1)c1ccc2c(n1)CCCN2c1ccnc(C(F)(F)F)n1	–	166 (≈ 73.9 µg/mL)	183 (≈ 81.5 µg/mL)	25	fraction unbound [8]: 0.05; IC50 [9]: 7 µM; Papp [11]: 33 ×10⁻⁶ cm/s; fIC50 [23]: 2.1 nM; IC50 (Cytochrome P450 3A4): 43 µM; fraction unbound [13]: 0.037; IC50 [15]: 6 µM; IC50 (Cytochrome P450 2C9): 18 µM

The next lines start with results.

logD at 24 h, 200 µM [1]	solubility at 24 h, 200 µM [2] [µM]	solubility at 24 h, 200 µM [3] [µM]	SMILES	IC50 [4] [µM]	other results
2.4	5 (≈ 1.89 µg/mL)	139 (≈ 52.5 µg/mL)	C[C@@H](NC(=O)c1ccc(F)cc1)c1ccc2c(n1)CCCN2c1ncccn1	20	–
3.1	82 (≈ 35.9 µg/mL)	148 (≈ 64.8 µg/mL)	C[C@@H](NC(=O)c1ccc(F)cc1)c1ccc2c(n1)CCCN2C(=O)c1cccc(Cl)c1	–	Drug metabolism [7]: Metabolite_Detected; fraction unbound [8]: 0.029; IC50 [9]: 20 µM; Drug metabolism [10]: Metabolite_Detected; Papp [11]: 32 ×10⁻⁶ cm/s; IC50 (Cytochrome P450 3A4): 20 µM; half-life [12]: 1.6 h; fraction unbound [13]: 0.037; clearance [14]: 57 mL/min/kg; IC50 [15]: 20 µM; CL free [16]: 1566 mL/min/kg
2.3	147 (≈ 55.3 µg/mL)	177 (≈ 66.6 µg/mL)	C[C@@H](NC(=O)c1ccc(F)cc1)c1ccc2c(n1)CCCN2c1cccnc1	–	–
–	166 (≈ 65 µg/mL)	168 (≈ 65.8 µg/mL)	Cc1nccc(N2CCCc3nc([C@@H](C)NC(=O)c4ccc(F)cc4)ccc32)n1	18	–
1.9	164 (≈ 61.9 µg/mL)	157 (≈ 59.3 µg/mL)	C[C@@H](NC(=O)c1ccc(F)cc1)c1ccc2c(n1)CCCN2c1ccncn1	–	–
2.3	165 (≈ 66.2 µg/mL)	196 (≈ 78.7 µg/mL)	COCCOC(=O)N1CCCc2nc([C@@H](C)NC(=O)c3ccc(F)cc3)ccc21	–	–
2.7	168 (≈ 62.4 µg/mL)	183 (≈ 68 µg/mL)	CCOC(=O)N1CCCc2nc([C@@H](C)NC(=O)c3ccc(F)cc3)ccc21	–	–
2.3	154 (≈ 55 µg/mL)	167 (≈ 59.7 µg/mL)	COC(=O)N1CCCc2nc([C@@H](C)NC(=O)c3ccc(F)cc3)ccc21	–	–
2	168 (≈ 67.1 µg/mL)	176 (≈ 70.3 µg/mL)	C[C@@H](NC(=O)c1ccc(F)cc1)c1ccc2c(n1)CCCN2C(=O)OC1COC1	–	–
2.8	156 (≈ 59.8 µg/mL)	181 (≈ 69.4 µg/mL)	C[C@@H](NC(=O)c1ccc(F)cc1)c1ccc2c(n1)CCCN2C(=O)OC1CC1	20	fraction unbound [8]: 0.094; IC50 [9]: 60 µM; bioavailability [17]: 40%; Papp [11]: 32 ×10⁻⁶ cm/s; IC50 (Cytochrome P450 3A4): 60 µM; half-life [12]: 1.1 h; fraction unbound [13]: 0.11; IC50 [15]: 60 µM; CL free [18]: 221 mL/min/kg; clearance [19]: 14 mL/min/kg; IC50 (Cytochrome P450 2C9): 6.2 µM
2.9	162 (≈ 70.5 µg/mL)	187 (≈ 81.4 µg/mL)	C[C@@H](NC(=O)c1ccc(F)cc1)c1ccc2c(n1)CCCN2C(=O)C1(C(F)(F)F)CC1	–	Stabilty [5]: Stable; Stabilty [6]: Stable
3.2	134 (≈ 53.3 µg/mL)	184 (≈ 73.1 µg/mL)	C[C@@H](NC(=O)c1ccc(F)cc1)c1ccc2c(n1)CCCN2C(=O)OC1CCC1	–	–
3	132 (≈ 56.2 µg/mL)	200 (≈ 85.1 µg/mL)	C[C@@H](NC(=O)c1ccc(F)cc1)c1ccc2c(n1)CCCN2C(=O)OCC(F)(F)F	–	–
2.7	151 (≈ 56.8 µg/mL)	197 (≈ 74.2 µg/mL)	C[C@@H](NC(=O)c1ccc(F)cc1)c1ccc2c(n1)CCCN2c1ccccn1	–	–
